Legend:
[1] = tested on: ISG gene expression induced by MSA-2 in human THP1-Blue-ISG cells; experiment: Inhibition of MSA-2-induced ISG gene expression in human THP1-Blue-ISG cells (Quanti-Blue, OD650); format: cell-based; details: STING agonist MSA-2 10 µM, incubated for 24 hours
Protocol: 10 µL of compound diluted with PBS/physiological saline was added to each well of a 96 well cell culture plate. The STING agonist was MSA-2, which was added to the counted cell suspension at a final concentration of 10 µM. For the control group without compounds, 10 µL of PBS/physiological saline containing 2% DMSO was added. 3 replicate wells were set in each group. THP1-Blue-ISG cells were counted and adjusted to a cell concentration of 4× 10^5/mL, and 190 µL of cells containing STING agonist were added to each well for incubation. Therefore, the final volume of each test well was 200 µL, the content of DMSO was 0.1%, and the final concentration of the compound tested was 10/3.3/1.1/0.4/0.13/0.04/0.013/0.004 µM, incubated for 24 hours. In addition, 190 µL of cells without STING agonist and 10 µL of physiological saline containing 2% DMSO were added to the blank group. 3 replicate wells were set in each group.
After 24 hours, 20 µL of culture medium was taken from each well and transferred to a new 96 well plate. 180 µL of chromogenic solution Quanti-Blue was added. The plate was placed in a 37 °C incubator. After 2 hours, the OD650 values were measured.
Result analysis: Inhibition rate (%) = (Con(OD650)−Treated(OD650))/Con(OD650) × 100% [formula]
The IC50 calculation of inhibitors was implemented using the Graphpad Prism 8 software's calculation method log (inhibitor) vs. response - Variable slope (four parameters), with a constrain interval of 0-100.

[2] = tested on: DMXAA induced ISG gene expression in mouse RAW-Lucia cells; experiment: Inhibition of DMXAA-induced ISG gene expression in mouse RAW-Lucia cells (QUANTI-Luc); format: cell-based; details: STING agonist DMXAA 50 µM, incubated for 24 hours
Summary of the method: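 RAW-Lucia cells (4×10^5/mL) stimulated with 50 µM DMXAA and co-incubated 24 h with compound at 10 to 0.004 µM (3-fold steps, 0.1% DMSO). Secreted luciferase in supernatant read with QUANTI-Luc; inhibition calculated against DMXAA-only control, IC50 from four-parameter variable-slope fit constrained 0–100.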

[3] = tested on: Trex1-D18N autoimmune mouse model; experiment: Inflammatory inhibitory effect of oral administration in Trex1-D18N autoimmune mouse model; format: in vivo; details: I-77 20mpk, daily for one month, qPCR of Cxcl10/IP10, ISG15, ISG56, IFN-β, IFN-γ, STAT2 in heart, Figure 10
Protocol: The model mice were purchased from GEMPHARMATECH CO., LTD., and the wild-type C57/BL6 mice were also purchased from GEMPHARMATECH CO., LTD.. Compound preparation method: 2 mg of I-77 powder was taken, 12 µL of PEG400 was added thereto and ultrasonically dissolved, and then 8 µL of Tween 80 was added and ultrasonically mixed to prepare a 100 mg/mL stock solution.
Experimental grouping: Wild type mice control group (Control) was administered vehicle solvent; The model mice group (Model) was administered vehicle solvent; The treatment group (I-77) was administered I-77 (20mpk, PO) to the model mice. The mice in the I-77 group were intragastrically administered 200 µL of I-77 solution at a final concentration of […] daily, which was prepared by dilution with double-distilled water; The same dose of vehicle solvent was administered to the remaining groups continuously for one month. The heart was collected from the experimental endpoint samples. RNA extraction was performed on heart samples, and the RNA was reversed to cDNA. Changes in gene expression of inflammation related cytokines (Cxcl10/IP10, ISG15, ISG56, IFN-β, IFN-γ, and STAT2) in the tissues were detected using qPCR technology. Statistical method: One way ANOVA, *P<0.05, **P<0.01, ***P<0.001, ***P<0.0001.

CC1(C)C(=O)N(Cc2ccsc2)c2cc(C(=O)Nc3c[nH]c4ccccc34)ccc21 [Example I-77, N-(1H-indol-3-yl)-3,3-dimethyl-2-oxo-1-(thien-3-ylmethyl)indolin-6-carboxamide]
IC50 [1]: 162 nM | IC50 [2]: 2.28 nM | cardiac inflammation related cytokine expression in the Trex1-D18N model [3]: significantly inhibit the upregulation

Reference: patent EP4748844A1, “AZETIDINE COMPOUND AND MEDICAL USE THEREOF” (SHANGHAI INSTITUTE OF MATERIA MEDICA, CHINESE ACADEMY OF …, priority 2023, dated 2025)
